The values below come from PubChem BioAssay (NCI).

Among the test systems are CAKI-1 renal; COLO 205 colon; HL-60(TB) leukemia; HOP-92 NSCLC; LOX IMVI melanoma; OVCAR-8 ovarian; SF-295 CNS; SK-OV-3 ovarian; SNB-75 CNS; SR leukemia.
Holding throughout (assay): DTP human tumour cell line panel, 48 h

Several values for one entry are separate records, joined by “and”; a condition that tells them apart may be missing. Equal values may be shown once.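 Protocol summary: plate cells (96-well), add compound at 5 concentrations, incubate 48 h, interpolate endpoints linearly. Here, GI50 denotes the concentration required for 50% inhibition of growth. The concentration for full growth arrest is given as TGI.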

A word on the GI50: it is the concentration giving 50% growth inhibition. The term TGI denotes the concentration giving total growth inhibition. Lower therefore signals more potent growth arrest. On to `O=C(/C=C/c1cccnc1)NCCCCC1CCN(C(=O)c2ccccc2)CC1`, for which the GI50 is more than 100 µM with CAKI-1 renal; 25.4 µM in the experiment with COLO 205 colon; more than 65.6 µM in the experiment with HL-60(TB) leukemia; 26.8 µM and > 32 µM in the experiment on HOP-92 NSCLC; more than 100 µM with LOX IMVI melanoma; less than 0.01 µM in the experiment on OVCAR-8 ovarian. In addition, the 50% growth inhibitory concentration (GI50) was less than 0.0256 µM in the experiment with SF-295 CNS, more than 100 µM in the experiment on SK-OV-3 ovarian and more than 73.6 µM in the experiment on SNB-75 CNS. For the same compound, the TGI with CAKI-1 renal, with COLO 205 colon, in the experiment on HL-60(TB) leukemia, with HOP-92 NSCLC, in the experiment with LOX IMVI melanoma and in the experiment with OVCAR-8 ovarian was more than 100 µM each time. Besides, the TGI in the experiment with SF-295 CNS, in the experiment on SK-OV-3 ovarian, in the experiment with SNB-75 CNS and in the experiment with SR leukemia was more than 100 µM each time.
Turning to `CC(=O)OC[C@H]1O[C@@H](n2ccc(=O)[nH]c2=O)[C@H](OC(C)=O)[C@@H]1OC(C)=O`, the GI50 in the experiment with CAKI-1 renal, in the experiment with COLO 205 colon, in the experiment on HL-60(TB) leukemia, in the experiment on HOP-92 NSCLC, in the experiment on LOX IMVI melanoma and with OVCAR-8 ovarian was more than 100 µM in each case. The GI50 in the experiment on SF-295 CNS, with SK-OV-3 ovarian, with SNB-75 CNS and in the experiment on SR leukemia was more than 100 µM in each case. The TGI in the experiment on CAKI-1 renal, with COLO 205 colon, in the experiment on HL-60(TB) leukemia, in the experiment on HOP-92 NSCLC, in the experiment with LOX IMVI melanoma and with OVCAR-8 ovarian was more than 100 µM throughout. In addition, the total growth inhibition concentration (TGI) in the experiment on SF-295 CNS, with SK-OV-3 ovarian, in the experiment with SNB-75 CNS and with SR leukemia was more than 100 µM in each case.
With `COP(=O)(OC)C(NC(c1ccccc1)c1ccccc1)c1ccc2c(c1)OCO2` (centres undefined), the GI50 is 33.2 µM with CAKI-1 renal; 52.2 µM with COLO 205 colon; 22.8 µM in the experiment with HL-60(TB) leukemia; 12 µM with HOP-92 NSCLC; 16.4 µM in the experiment on LOX IMVI melanoma; 35.2 µM with OVCAR-8 ovarian. Besides, the GI50 is 29.5 µM in the experiment on SF-295 CNS, 40.7 µM in the experiment on SK-OV-3 ovarian, 30.5 µM in the experiment with SNB-75 CNS and 24.4 µM with SR leukemia. In addition, the TGI was 89 µM in the experiment with CAKI-1 renal; more than 100 µM with COLO 205 colon; 56.5 µM in the experiment with HL-60(TB) leukemia; 26.3 µM in the experiment with HOP-92 NSCLC; 31.4 µM in the experiment with LOX IMVI melanoma; more than 100 µM in the experiment on OVCAR-8 ovarian. Further, the TGI with SF-295 CNS was more than 100 µM; with SK-OV-3 ovarian it was more than 100 µM; in the experiment on SNB-75 CNS it was 67.2 µM; in the experiment on SR leukemia, 48.9 µM.
On to `CCN(CC)c1ccc(/C=C\c2cc(C)c3cc(C)ccc3n2)cc1`, for which the GI50 with CAKI-1 renal was 5.55 µM; with COLO 205 colon, 3.67 µM; in the experiment with HL-60(TB) leukemia, 3.23 µM; with HOP-92 NSCLC, 1.66 µM; in the experiment on LOX IMVI melanoma, 4.29 µM; in the experiment on OVCAR-8 ovarian, 4.79 µM. The GI50 with SF-295 CNS is 4.19 µM; with SK-OV-3 ovarian, 4.63 µM; in the experiment with SNB-75 CNS it was 4.83 µM; with SR leukemia, 3.41 µM. The TGI in the experiment on CAKI-1 renal is more than 100 µM; in the experiment with COLO 205 colon it was 18.5 µM; with HL-60(TB) leukemia it was 7.66 µM; in the experiment on HOP-92 NSCLC it was 7.06 µM; in the experiment with LOX IMVI melanoma, more than 100 µM; with OVCAR-8 ovarian, more than 100 µM. The TGI in the experiment on SF-295 CNS, with SK-OV-3 ovarian, in the experiment with SNB-75 CNS and with SR leukemia was more than 100 µM throughout.
Consider `CN(C)CCCn1c2c(c3cnccc3c1=O)C(=O)c1ccccc1-2`, for which the GI50 in the experiment on CAKI-1 renal was 0.376 µM; with COLO 205 colon, 0.269 µM; in the experiment on HL-60(TB) leukemia, 0.514 µM; in the experiment on HOP-92 NSCLC it was 0.203 µM; with LOX IMVI melanoma it was 0.303 µM; in the experiment with OVCAR-8 ovarian, 0.313 µM. The GI50 in the experiment with SF-295 CNS is 0.737 µM; in the experiment on SK-OV-3 ovarian, 1.96 µM; in the experiment with SNB-75 CNS it was 0.82 µM; in the experiment with SR leukemia, 0.095 µM. Also, the TGI in the experiment on CAKI-1 renal was found to be 7.01 µM; with COLO 205 colon, 3.66 µM; in the experiment on HL-60(TB) leukemia, 4.65 µM; in the experiment with HOP-92 NSCLC, 2.68 µM; in the experiment on LOX IMVI melanoma, 4.18 µM; with OVCAR-8 ovarian, 44.1 µM. Besides, the TGI stood at 5.59 µM in the experiment with SF-295 CNS, 28.7 µM in the experiment on SK-OV-3 ovarian, 4.03 µM with SNB-75 CNS and 0.793 µM in the experiment on SR leukemia.
Consider `CCCC[C@H]1C(=O)O[C@H](C)[C@H](NC(=O)c2cccc(NC=O)c2O)C(=O)O[C@@H](C)[C@@H]1OC(=O)CC(C)C`, for which the concentration for total growth inhibition (TGI) worked out at 40.9 µM with CAKI-1 renal; 31.6 µM in the experiment with COLO 205 colon; 34.2 µM with HL-60(TB) leukemia; 29.9 µM in the experiment on HOP-92 NSCLC; 19 µM in the experiment with LOX IMVI melanoma; 40.5 µM in the experiment with OVCAR-8 ovarian. For the same compound, the concentration for total growth inhibition (TGI) in the experiment on SF-295 CNS was 21 µM; in the experiment on SK-OV-3 ovarian, 54.4 µM; with SNB-75 CNS it was 59.9 µM; in the experiment on SR leukemia, 38.3 µM.
In the case of `O=C(O)c1ccc2c(c1)Cc1cc([N+](=O)[O-])ccc1-2`, the concentration for total growth inhibition (TGI) in the experiment on CAKI-1 renal, in the experiment on COLO 205 colon, in the experiment with HL-60(TB) leukemia, with HOP-92 NSCLC, in the experiment on LOX IMVI melanoma and in the experiment on OVCAR-8 ovarian was more than 100 µM in each case. Besides, the TGI in the experiment with SF-295 CNS, with SK-OV-3 ovarian, in the experiment on SNB-75 CNS and in the experiment with SR leukemia was more than 100 µM each time.
For `COc1ccc(/C=N/N=C(\N)NO)cc1OC`, the TGI in the experiment on CAKI-1 renal is 92.3 µM; in the experiment on COLO 205 colon, more than 100 µM; in the experiment with HL-60(TB) leukemia it was more than 100 µM; in the experiment with HOP-92 NSCLC, more than 100 µM; with LOX IMVI melanoma it was more than 100 µM; in the experiment on OVCAR-8 ovarian, more than 100 µM. Further, the TGI in the experiment on SF-295 CNS, in the experiment with SK-OV-3 ovarian, with SNB-75 CNS and in the experiment with SR leukemia was more than 100 µM in each case.
In the case of `Cc1ccc2c(c1)nc(C(=O)c1ccco1)c(C(F)(F)F)[n+]2[O-]`, the GI50 with CAKI-1 renal is 77 µM; in the experiment with COLO 205 colon it was more than 100 µM; in the experiment with HL-60(TB) leukemia, 51.4 µM; in the experiment with HOP-92 NSCLC it was 40.1 µM; in the experiment with LOX IMVI melanoma, more than 100 µM; in the experiment on OVCAR-8 ovarian, more than 100 µM. Also, the GI50 with SF-295 CNS is 64 µM; in the experiment on SK-OV-3 ovarian it was more than 100 µM; in the experiment with SNB-75 CNS, 76.7 µM; in the experiment on SR leukemia it was 64.4 µM. The TGI in the experiment with CAKI-1 renal, in the experiment with COLO 205 colon, with HL-60(TB) leukemia, with HOP-92 NSCLC, in the experiment on LOX IMVI melanoma and with OVCAR-8 ovarian was more than 100 µM in each case. For the same compound, the TGI with SF-295 CNS, in the experiment with SK-OV-3 ovarian, in the experiment with SNB-75 CNS and in the experiment on SR leukemia was more than 100 µM in each case.
